Values quoted from earlier work in patent US20250134380A1, “DETECTION AND LOCALIZATION OF DISEASE UTILIZING FLUORESCENCE SPECTRA OF EXOGENOUS FLUOROPHORES” (PREVIEW MEDICAL INC., priority 2022, published 2025).

Tested on: hyperthermia treated tumor
Conditions: animal models; hyperthermia treated vs non-hyperthermia treated tumors

CC1(C)C(/C=C/C=C/C=C/C=C2\N(CCCCS(=O)(=O)O)c3ccc4ccccc4c3C2(C)C)=[N+](CCCCS(=O)(=O)[O-])c2ccc3ccccc3c21 [ICG, Indocyanine green]
ICG uptake in hyperthermia treated tumor relative to non-hyperthermia treated tumors: 1.23 times
